We go through 1 compound from patent US20150335558A1, “NERVE GROWTH INHIBITOR, CUTANEOUS-SENSORY-IRRITATION INHIBITOR, AND MARKER FOR CUTANEOUS-SENSORY-IRRITATION DETECTION” (HOYU CO., LTD., priority 2012, published 2015).

Molecules are shown by their SMILES.

Experiment [1] deals with histamine in mouse epidermis and dermis. Description: Amount of histamine in ICR mouse skin after SDS (Sample Experiment 1-3). The following applies: ICR mice, Day 4, 10% SDS application group vs solvent control. Format: in vivo. As for the experimental part: The present Sample Experiment was conducted using ICR mice, and SDS was used as a stimulating substance. After SDS was applied, the amount of histamine in the skin of each mouse was assessed, and so was the HDC expression amount in the skin of each mouse. The same ICR mice as used in Sample Experiment 1-1 was used. Treatments of the ICR mice, such as preliminary rearing, and the shearing/depilating of the rotal back, were performed similarly to Sample Experiment 1-1. A 10% aqueous solution obtained by dissolving SDS in distilled water was applied to the mouse rostal back as a stimulating substance against the skin similarly to Sample Experiment 1-1. Distilled water was applied to the solvent control group (Vehicle). Skin was collected by operations similar to that mentioned in “Amount of Histamine in Mouse Skin” in Sample Experiment 1-2 from each ICR mouse of the 10% SDS aqueous solution application group and the solvent control group mentioned above after 4 days had passed from application (Day 4). The collected skins were separated into the epidermis and the dermis, and the amounts of histamine in those skins were measured.

The test system of experiment [2] is mast cell deficient mice (WBB6F1-W/W^V) and normal control mice (WBB6F1-+/+). Description: Scratch bouts of mast cell deficient and normal control mice after 10% SDS application (Sample Experiment 1-2). Particulars: both mast cell deficient and normal control mice, 10% SDS aqueous solution 50 μL single application; no significant difference between both mice. The format is in vivo, mouse. How it is done:
The present Sample Experiment was conducted using mast cell deficient mice and normal control mice, and SDS was used as a stimulating substance to analyze the scratch bouts of mice. Further, the amount of histamine in the skin of each mouse was assessed after SDS had been applied. Male mast cell deficient mice at ages of 7 to 8 weeks (WBB6F1-W/W^V mouse), purchased from Japan SLC, and normal control mice that are wild mice at ages of 7 to 8 weeks (WBB6F1-+/+mouse) were used. The mice were given solid feed under free water supply and subjected to preliminary rearing for 7 days or longer under a constant temperature/constant humidity environment with a temperature of 22±2° C., and a humidity of 55±10% before they were used in the test. The mice for use were used in the test at least 3 days after shearing/depilating the rostral back of each mouse. A 10% aqueous solution composed of SDS dissolved in distilled water was applied a single time at 50 μL as a stimulating substance against the skin to the sheared/depilated rostral back of the mice mentioned above. If the surfactant solution had turned hard before application, it was heated and dissolved in a hot water bath of 37° C. before use. Distilled water was applied to the solvent control group (Vehicle). […]

Experiment [3] concerns histamine in mouse epidermis and dermis. Description: Amount of histamine in skin of mast cell deficient and normal control mice after SDS (Sample Experiment 1-2). Format: in vivo. Particulars: Day 4, both mast cell deficient and normal control mice, SDS applied group vs solvent control. As for the experimental part: Meanwhile, skin was collected from each of the mast cell deficient mice and normal control mice in the 10% SDS aqueous solution application group mentioned above at Day 4 while the mice were under anesthesia after perfusion with a phosphate buffer solution (PBS) using the cardiac blood circulation system (punched out with a biopsy punch in a circular shape of a diameter of 18 mm). The amounts of histamine in the collected skins were measured. In other words, each collected skin was immersed in PBS of 60° C. for 30 secs., then separated into the epidermis and the dermis. Subsequently, the amounts of histamine in the epidermis and the dermis were measured using the measurement kit (histamine enzyme immunoassay kit (Immunotech, Marseilles, France)). To measure the amount of histamine, tissues of both the epidermis and the dermis were pulverized to create tissue suspensions, which were subjected to centrifugation, then supernatants were collected to measure the amounts of histamine in the supernatants.

The subject of another experiment is ICR mice. The experiment is described as follows: Scratch bouts of ICR mice after 10% SDS application (Sample Experiment 1-1). The format is in vivo, mouse. The following applies: ICR mice, 10% SDS aqueous solution 50 μL single application to rostral back, Day 0 to Day 4, vs untreated and solvent control. How it is done: The present Sample Experiment was conducted using ICR mice, and an anionic surfactant, namely, sodium dodecyl sulfate (SDS), was used as a stimulating substance to analyze the scratch bouts of mice. After SDS had been applied, terfenadine (TRF) was administered as an antihistamine to determine its effect on scratch bouts.
Male ICR mice at ages of 7 to 8 weeks, purchased from Japan SLC, were used. The mice were given solid feed under free water supply and subjected to preliminary rearing for 7 days or longer under a constant temperature/constant humidity environment with a temperature of 22±2° C., and a humidity of 55±10% before they were used in the test. The mice for use were used in the test at least 3 days after shearing/depilating the rostral back of each mouse. […]
The scratch bouts of mice were performed in view of the Kuraishi et al. report. That is, a single mouse was put in each chamber of the 4 divided sections in an acrylic box (13×9×35 cm) to be acclimated for at least an hour, and they were video recorded in an environment without any person for at least an hour a day from the day of applying the above 10% SDS aqueous solution (Day 0) to the 4th day after application (Day 4) to record their movement. Then, by watching the video, the number of scratch bouts against the rostral back by the hind leg was counted. […]

Turning to `CCCCCCCCCCCCOS(=O)(=O)[O-].[Na+]` [SDS, sodium dodecyl sulfate], the figures for the “amount of histamine in mouse dermis” value in experiment [1] and in experiment [3] were “does not differ significantly” and “barely increased”, respectively. The “amount of histamine in mouse epidermis” value is “significantly higher” in experiment [1] and “significantly high” in experiment [3]. Moreover, the “scratch bouts of mice (number in 60 mins.) after stimulating substance” value in experiment [2] is “increased significantly with time”; in the experiment with ICR mice, “increased significantly over time”.
